Results published in the NIST ThermoML archive (doi:10.1016/j.jct.2016.10.009).

Test: xn = mol fraction of the nth substance listed
Conditions: Liquid, Vibrating tube method, x1 = 1

CCC(C)O (centres undefined) [butan-2-ol] + CC(C)OC(C)C
mass density [kg/m3]
Conditions	293.15 K	298.15 K	313.15 K	333.15 K	353.19 K	373.24 K	393.28 K
100 kPa	806.7	802.6	789.6	770.8	750.3	–	–
1000 kPa	807.4	803.3	790.3	771.8	751.4	729.1	704.8
5000 kPa	810.4	806.4	793.7	775.7	756	734.5	711.3
10000 kPa	814	810.1	797.8	780.3	761.3	740.8	718.8
15000 kPa	817.4	813.7	801.6	784.7	766.4	746.6	725.6
20000 kPa	820.7	817	805.3	788.9	771	751.9	731.7
25000 kPa	823.9	820.2	808.6	792.7	775.4	757	737.4
30000 kPa	826.9	823.4	812.1	796.4	779.5	761.6	742.7
35000 kPa	829.8	826.4	815.3	800	783.5	766.1	747.8
40000 kPa	832.7	829.2	818.4	803.5	787.2	770.3	752.5
45000 kPa	835.4	832	821.3	806.6	790.8	774.4	757
50000 kPa	838.1	834.7	824.3	809.8	794.4	778.1	761.2
55000 kPa	840.6	837.4	827.1	812.8	797.7	781.8	765.4
60000 kPa	843.2	839.9	829.8	815.8	801	785.3	769.2
65000 kPa	845.6	842.4	832.5	818.7	804.1	788.8	772.9
70000 kPa	848	844.8	835	821.4	807.2	792.1	776.6
80000 kPa	852.6	849.5	839.9	826.8	812.9	798.4	783.4
90000 kPa	857.1	854.1	844.7	831.9	818.3	804.3	789.8
100000 kPa	861.2	858.3	849.1	836.7	823.5	809.8	795.8
110000 kPa	865.3	862.4	853.5	841.3	828.5	815.1	801.5
120000 kPa	869.2	866.3	857.6	845.6	833.1	820.1	806.8
130000 kPa	873	870.1	861.5	849.9	837.6	824.9	811.9
140000 kPa	876.6	873.9	865.4	853.9	842	829.5	816.8
